In patent publication US6417235B2, “Method and use of α-amino-β-mercapto-ethane derivatives as dicarbonyl scavengers for treatment of conditions resulting from protein, lipid, and DNA damage” (University of Kentucky Research Foundation, priority 2000, dated 2002):

Legend:
HaCat cells = assay: Protection of keratinocytes from alpha-dicarbonyl stress (cell count after 72 hour exposure); assay type: cell-based, human
Method: (§1) A continuous cell line of human epidermal keratinocytes (HaCat cells) and human dermal fibroblasts (CF-3 cells) were routinely cultured in 75 cm^2 flasks and split biweekly in DMEM containing 10% fetal bovine serum and kept in a humidified atmosphere containing 5% CO2 at 37° C. Human keratinocytes were split using 5% trypsin and human fibroblasts employed 1% trypsin. All experiments were carried out on 6 well dishes (Falcon USA), where keratinocytes were seeded at 2×10^4 cells/well and fibroblasts at 4×10^4 cells/well. Cells were left overnight to attach to the plate and the appropriate carbonyl scavenger was then added 15 minutes prior to the addition of the alpha-dicarbonyl stress compounds glyoxal or methylglyoxal. Following 72 hour exposure to the stress compound, cells were counted with a Coulter counter. the protective effects of the alpha-dicarbonyl scavengers were assessed by comparing the growth of untreated cells with cells exposed to alpha-carbonyl stress +/− test compound.

ΦX-174 DNA = assay: AGE-BSA photosensitized cleavage of ΦX-174 DNA under solar simulated light; assay type: biochemical; conditions: solar simulated light, AGE-BSA as photosensitizer
Method: Glycated Proteins as Photosensitizers of DNA Damage in Skin Photoaging. D-Penicillamine inhibits genotoxic consequences of AGE-photosensitization. Accumulation of AGEs on dermal elastin and collagen occurs during normal skin aging in humans. The hypothesis was tested that the intra- and extracellular accumulation of the complex yellow-brown AGE-chromophores contributes to skin aging and carcinogenesis induced by chronic exposure to sunlight. As a possible molecular mechanisms for a detrimental synergism of AGE-formation and exposure to sunlight, photosensitized DNA damage by AGEs was assessed in a simple in vitro system. Irradiation of covalently closed circular ΦX-174 DNA with increasing doses of solar simulated light (SSL) in the presence of AGE-BSA was used to detect photosensitized DNA nicking as a measure of DNA photodamage (panel A). […] Addition of several antioxidants modulated the photosensitization effect (panel C).

HaCat keratinocytes = assay: AGE-photosensitization of human skin cells, growth inhibition under solar simulated light; conditions: 10 mM
Method: Human HaCat keratinocytes growing on 35 mm dishes were exposed to solar simulated light (1.2 kJ/m^2 UVB and 23 kJ/m^2 UVA) in the presence or absence of AGE-BSA as a model of a protein with advanced glycation endproducts. Control populations were treated in exactly the same way as described above, but were not exposed to solar simulated light (SSL).

histone H1 = assay: Histone H1 crosslinking by 12% SDS-PAGE with silver staining; assay type: biochemical, calf; conditions: 5 mM; histone H1, ADP-ribose reaction system
Method: The following screening scheme is used (see Table 1): AGE-fluorescence is determined at the beginning and after five days of incubation. Test compounds that are inherently fluorescent (designated false negatives) were identified by the initial fluorescence measurement (See Table 1, NADH for example). Since these are compounds of uncertain activity, they are diverted directly to the second stage of the screen. Aminoguanidine, a known glycation inhibitory agent, was used as a positive control for suppression of the increase on AGE-fluorescence. After five days incubation and plate reading, fluorescence quenchers (designated false positives) are excluded by measuring the quenching activity of the test compound by addition of AGE modified protein having known fluorescence activity to one microtiter plate well containing test compound in the complete reaction mixture. For this, AGE-BSA is used as the AGE-type fluorescence standard. This AGE-BSA test excludes false positives compounds that function by fluorescence quenching. If fluorescence quenching occurs the test compound is excluded from further screening. […] The protein is visualized by silver staining of the gel. […] A compound that passes the first and second stage of the screen is considered a glycation inhibitor and is further evaluated for biological activity as described below. […]

CF-3 cells = assay: Protection of fibroblasts from alpha-dicarbonyl stress (cell count after 72 hour exposure); assay type: cell-based, human
Method: as §1

[1] = Alpha-dicarbonyl trapping followed by HPLC
Method: Phenylglyoxal (10 mM) and D-penicillamine (20 mM) were reacted in 50 mM KH2PO4 buffer, pH 7.4 at room temperature. The progress of he reaction was monitored by HPLC analysis of reaction aliquots at 254 nm. After 40 minutes reaction time more than 90% conversion of the phenylglyoxal peak into a single product peak of higher retention time was observed. […] UV detection was at 254 nm. As shown by the HPLC analysis of the reaction system shown in FIG. 7, phenyglyoxal is fully reacted with D-penicillamine within 5 minutes. […] The reaction kinetics were studied at a phenylglyoxal concentration of […] and at 250 and 500 micromolar carbonyl scavenger concentration (D-penicillamine, aminoguanidine). Over the course of the reaction, aliquots were analyzed by HPLC. In the case of D-penicillamine, which required shorter sampling periods, reaction aliquots were taken every 20 seconds, and kept on dry ice until analysis. The initial reaction rates of phenylglyoxal with the test compounds were monitored by following the disappearance of phenylglyoxal over time. […] The measured first order rate constant (kst) was then used to calculate the second order rate constant (by applying the following equation: […]-carbonyl scavenger}. The calculated second order rate constants determined at the two reactant ratios were in good agreement.

## CC(C)(S)[C@@H](N)C(=O)O [D-Penicillamine]
HaCat cells; FIG. 14
  protection from alpha-dicarbonyl stress: protection
HaCat cells; FIG. 15
  protection from methylglyoxal induced alpha-dicarbonyl stress: protection
ΦX-174 DNA
  effect on AGE-BSA photosensitized DNA cleavage: inhibited the photosensitization effect of AGE-BSA in a dose dependent relationship
HaCat keratinocytes
  toxic effects on HaCat cells: no toxic effects
HaCat keratinocytes; AGE-BSA with SSL
  reversal of the photosensitization effect: completely reversed the photosensitization effect
Histone H1
  inhibition of histone H1 crosslinking: inhibit histone H1 crosslinking
CF-3 cells; FIG. 14
  protection from alpha-dicarbonyl stress: protection
CF-3 cells; FIG. 15
  protection from methylglyoxal induced alpha-dicarbonyl stress: protection
[1]; HPLC analysis, FIG. 7
  time until phenylglyoxal is fully reacted: ≤ 5 min
[1]; phenylglyoxal 10 mM, D-penicillamine 20 mM, pH 7.4, room temperature, after 40 minutes
  conversion of the phenylglyoxal peak into a single product peak: more than 90%
